Source: paper PMC3751846, “BET Inhibition Silences Expression of MYCN and BCL2 and Induces Cytotoxicity in Neuroblastoma Tumor Models” (PLoS ONE, 2013)
Read-outs that look alike come from different tables or passages of the source.

Experiments:
Test in all cases: cells
[1] = tested on: CHP-212; set-up: species or system neuroblastoma cell lines; 6 day growth-death assay, CellTiter-Fluor read-out, mid-point of growth window (DMSO to T0); settings: Homo sapiens, CHP-212, 144 h; CellTiter-Fluor, 6 days; read-out: gIC50 CellTiter-Fluor
Protocol: (§1) Cell line growth-death assays were performed as described, with a few modifications. Briefly, cells were seeded into 384-well or 96-well plates at a density optimized for 6 days of growth. The following day, T0 measurements were taken using CellTiter-Glo (CTG; Promega, Madison, WI), CellTiter-Fluor (Promega), or CyQuant Direct (Life Technologies), following the manufacturer’s instructions. Plates were read on an Envision (PerkinElmer, Waltham, MA), Safire 2 (Tecan, Durham, NC), or SpectraMax Gemini EM (Molecular Devices, Sunnyvale, CA) plate reader. […] Cells were incubated for 6 days and developed as described above. Results were plotted as a percentage of the T0 value, normalized to 100%, versus concentration of compound. A 4-parameter equation was used to generate concentration response curves. Growth IC50 (gIC50) values were calculated at the mid-point of the growth window (between DMSO and T0 values). Ymin-T0 values were calculated by subtracting the T0 value (100%) from the Ymin value on the curve, and are a measure of net population cell growth or death.

[2] = tested on: LA1-5s; set-up: species or system neuroblastoma cell lines; 6 day growth-death assay, CellTiter-Fluor read-out, mid-point of growth window (DMSO to T0); settings: Neuroblastoma cell, 144 h; CellTiter-Fluor, 6 days; read-out: gIC50 CellTiter-Fluor
Protocol: as §1

[3] = tested on: SK-N-AS; set-up: species or system neuroblastoma cell lines; 6 day growth-death assay, CellTiter-Fluor read-out, mid-point of growth window (DMSO to T0); settings: Homo sapiens, SK-N-AS, 144 h; CellTiter-Fluor, 6 days; read-out: gIC50 CellTiter-Fluor
Protocol: as §1

[4] = tested on: SK-N-BE(2); set-up: species or system neuroblastoma cell lines; 6 day growth-death assay, CellTiter-Fluor read-out, mid-point of growth window (DMSO to T0); settings: Homo sapiens, SKNBE2, 144 h; CellTiter-Fluor, 6 days; read-out: gIC50 CellTiter-Fluor
Protocol: as §1

[5] = tested on: CHP-212; set-up: species or system neuroblastoma cell lines; 6 day growth-death assay, CyQuant Direct read-out, mid-point of growth window (DMSO to T0); settings: Homo sapiens, CHP-212, 144 h; CyQuant, 6 days; read-out: gIC50 CyQuant
Protocol: as §1

[6] = tested on: LA1-5s; set-up: species or system neuroblastoma cell lines; 6 day growth-death assay, CyQuant Direct read-out, mid-point of growth window (DMSO to T0); settings: Neuroblastoma cell, 144 h; CyQuant, 6 days; read-out: gIC50 CyQuant
Protocol: as §1

[7] = tested on: SK-N-AS; set-up: species or system neuroblastoma cell lines; 6 day growth-death assay, CyQuant Direct read-out, mid-point of growth window (DMSO to T0); settings: Homo sapiens, SK-N-AS, 144 h; CyQuant, 6 days; read-out: gIC50 CyQuant
Protocol: as §1

[8] = tested on: SK-N-BE(2); set-up: species or system neuroblastoma cell lines; 6 day growth-death assay, CyQuant Direct read-out, mid-point of growth window (DMSO to T0); settings: Homo sapiens, SKNBE2, 144 h; CyQuant, 6 days; read-out: gIC50 CyQuant
Protocol: as §1

Compound: CC(=O)N1c2ccc(-c3ccc(C(=O)O)cc3)cc2[C@H](Nc2ccc(Cl)cc2)C[C@@H]1C [I-BET726]
- GI50 [1]: 30 nM
- GI50 [2]: 25 nM
- GI50 [3]: 130 nM
- GI50 [4]: 20 nM
- GI50 [5]: 10 nM
- GI50 [6]: 10 nM
- GI50 [7]: 135 nM
- GI50 [8]: 80 nM
